From patent US12599575B2, “Antimicrobial adjuvant containing biphenyl derivative compound as active ingredient, and uses thereof” (KOREA RESEARCH INSTITUTE OF BIOSCIENCE AND BIOTECHNOLOGY, priority 2021, dated 2026)
Entries after “also recorded” stand apart in the source; their conditions may differ.

Legend:
[1] = tested on: A. baumannii colistin R357; assay: checkerboard assay, MIC and FICI; details: for MIC Alone: 18 hours
Protocol: First, in a LB agar plate, 3-4 colonies were inoculated into a 4-5 ml of a LB broth and incubated overnight at 37° C. and 220 rpm for 16 hours. Thereafter, 5 ml of a 1/10000 dilution of the culture medium was made and incubated to OD=0.08-0.1 at 37° C. and 220 rpm in a 15 ml round culture tube.
(§1) It was determined that when the FICI value was 0.5 or less, the effect was synergistic, when the value was 0.5 to 4.0, the effect was indifferent, and when the value was 4 or more, the effect was antagonistic.

[2] = tested on: human body-derived renal cells ACHN; assay: nephrotoxicity, renal cell viability (cell titer glo); format: cell-based
Protocol: First, ACHN renal cells were incubated with 2×10^4 cells/well for 24 hours, and the medium was changed to a medium in which PMB or PA108 was mixed in all wells. After 0, 24, 48, 72, and 96 hours of the treatment with PMB or PA108, cell viability was measured as ratios of the amounts of ATP at each time to 0 hour through cell titer glo to evaluate cytotoxicity.

[3] = tested on: K. pneumoniae SCH740; assay: checkerboard assay, MIC and FICI; details: for MIC Alone: 18 hours
Protocol: as §1
(§2) First, in each LB agar plate in which bacteria (Klebsiella pneumonia SCH530, SCH740, SCH777, Pseudomonas aeruginosa SMC-U9, SMC-U10, SMC-U11) were grown, 3 to 4 colonies were inoculated into 4 to 5 ml of a LB broth and incubated overnight at 220 rpm at 37° C. for 16 hours. The next day, 5 ml of a culture medium diluted to 1/10000 was incubated to OD=0.08-0.1 in a 15 ml round culture tube at 220 rpm at a temperature of 37° C., and was diluted to 1/20 and dispensed at 196 ul in a 96-well plate. PA108 and PMB were dispensed at concentrations of 0 to 80 μM and 0 to 128 μg/Ml, respectively at 2 ul each and mixed in each well, and incubated at 37° C. for 18 hours to measure the OD value using a multifunctional microplate reader.

[4] = tested on: Acinetobacter baumannii strains (R357); assay: bacterial morphological change (fluorescence microscope, scanning electron microscope); details: 9 hours
Protocol: First, in a LB agar plate, a single colony was inoculated into 3 ml of a LB broth and incubated overnight at 37° C. and 220 rpm for 16 hours. Thereafter, 1% of the culture medium was diluted in a 250 ml of Erlenmeyer flask and incubated to OD=0.5, treated with PMB and PA108 at concentrations of 16 μg/ml and 5 μM, respectively, and incubated for 9 hours. The cells were centrifuged at 4° C. for 10 minutes at 8,000×g, washed three times, and resuspended in PBS. 3 ml of the cell suspension was fixed and then observed with a scanning electron microscope. A LIVE/DEAD BacLight bacterial viability kit (Cat #. L7007, Invitrogen, Waltham, Massachusetts, USA) was used to add SYTO9 (67 mM, 3 μL) which bound to DNA and RNA of living cells to emit green fluorescence and Propidium iodide (PI) (1.67 mM, 3 μL) which bound to DNA and RNA of dead cells to emit red fluorescence to add each sample at a final volume of 3 ml, and the samples were incubated in a dark room at room temperature for 15 hours and observed with a fluorescence microscope.

[5] = tested on: Acinetobacter baumannii strains; assay: membrane permeability (PI fluorescence); format: cell-based; details: PMB 16 μg/ml + PA108 5 μM; 30 minutes
Protocol: Specifically, for sample preparation, a colony culture grown for 16 hours was washed and resuspended in 0.01 M PBS at pH 7.4. Absorbance at 600 nm in a bacteria suspension was standardized to 0.5 in the same buffer solution, and a pigment PI9 (cat. P1304MP, Thermo Fisher Scientific, Waltham, Massachusetts, USA) was added at a final concentration of 1.67 μM. After incubation at 37° C. for 30 minutes, 198 μl of fluorescently labeled bacteria cells were added to a 96-well plate, and 16 μg/ml of PMB and 2 μl of 5 μM PA108 were added. After incubation for 30 minutes again, fluorescence was measured in a fluorescence measurement wavelength range of excitation of 535 nm and emission of 615 nm by a multifunctional microplate reader to measure membrane permeability.

[6] = tested on: R357 strains; assay: bacterial viability test (colony forming unit)
Protocol: First, in a LB agar plate, a single colony was inoculated into a 3 ml of a LB broth and incubated overnight under the conditions of 37° C. and 220 rpm for 16 hours. Thereafter, 1% of the culture medium was diluted in a 250 ml Erlenmeyer flask and then incubated to OD=0.5.

[7] = tested on: P. aeruginosa SMC-U9; assay: checkerboard assay, MIC and FICI; details: for MIC Alone: 18 hours
Protocol: as §1, §2

[8] = tested on: K. pneumoniae SCH530; assay: checkerboard assay, MIC and FICI; details: for MIC Alone: 18 hours
Protocol: as §1, §2

[9] = tested on: Acinetobacter baumannii strains; assay: transcriptome analysis (RNA sequencing, DEG, gene ontology); details: 1 hour
Protocol: First, in a LB agar plate, a single colony was inoculated into a 3 ml of a LB broth and incubated overnight under the conditions of 37° C. and 220 rpm for 16 hours. Thereafter, 1% of the culture medium was diluted in a 250 mL Erlenmeyer flask and then incubated to OD=0.5. The culture medium was dispensed at 5 ml each into three 15 ml round culture tubes, treated with PMB at a concentration of 16 μg/ml, PA108 at a concentration of 5 μm, and PMB at a concentration of 16 μg/ml and PA108 at a concentration of 5 μm, respectively, and incubated at 37° C. and 220 rpm for 1 hour. Thereafter, bacteria were washed three times with PBS, centrifuged at 4° C. and 8,000×g for 10 minutes, and stored at −80° C.
The library for performing RNA sequencing was prepared by extracting total RNA with a TruSeq Stranded Total RNA sample preparation kit including Ribo-Zero H/M/R, and synthesizing 150 bp-sized cDNA. The quality of the synthesized cDNA library was evaluated by Agilent 2100 BioAnalyzer (Agilent, CA, USA), and after amplifying the cluster of a denatured template, paired-end sequencing which sequences both ends of a DNA fragment using Illumina Novaseq 6000 (Illumina, CA, USA) was performed. For transcriptomic data analysis, the read value was filtered, and the filtered read value was mapped to a reference genome using an aligner STAR v.2.4.0b. Thereafter, in order to measure a gene expression amount, gene expression was quantified using a KAPA library quantification kit (Kapa Biosystems, MA, USA) according to the library quantification protocol of the manufacturer.
In order to identify a differential expression gene (DEG), a gene expression level was measured with Cufflinks v2.1.1 using gene annotation database, and gene expression level count data was produced using HTSeq-count v0.6.1p1. Form the produced data, a TCC R package was used to identify a gene having a q value of less than 0.05 as a differential expression gene.
For the genes identified as the differential expression gene (DEG), gene ontology (GO) analysis in which genes were classified according to three categories of biological process, molecular function, and cellular component, and information about the function of genes is provided was performed.

[10] = tested on: K. pneumoniae SCH777; assay: checkerboard assay, MIC and FICI; details: for MIC Alone: 18 hours
Protocol: as §1, §2

[11] = tested on: Acinetobacter baumannii strains; assay: cytoplasmic membrane potential (DiSC3(5) fluorescence); format: cell-based; details: PMB and PA108 in combination
Protocol: The cell membrane potential was resuspended in 5 mM HEPES (pH 7.0, +5 mM of glucose), DiSC3(5) (3,3′-Dipropylthiadicarbocyanine Iodide) (50 μM, Cat. D306, Invitrogen, Carlsbad, California) which is a pigment sensitive to potential was added, incubation was performed for 30 minutes, and then fluorescence was measured by a multifunctional microplate reader to measure membrane potential.

[12] = tested on: R357 strains; assay: mouse sepsis model caused by R357 infection, survival rate; format: in vivo; details: PMB 100 μg/kg + PA108 60 μg/kg intraperitoneally
Protocol: Specifically, 5×10^7 of R357 strains were intraperitoneally injected into 6 week old C57BL/6 mouses to prepare a sepsis mouse model caused by R357 infection, and PMB at a dose of 100 μg/kg and PA108 at a dose of 60 μg/kg were intraperitoneally injected alone or in combination to measure the survival rate of the mouse.

[13] = tested on: P. aeruginosa SMC-U10; assay: checkerboard assay, MIC and FICI; details: for MIC Alone: 18 hours
Protocol: as §1, §2

[14] = tested on: P. aeruginosa SMC-U11; assay: checkerboard assay, MIC and FICI; details: for MIC Alone: 18 hours
Protocol: as §1, §2

[15] = A. baumannii colistin R357, PA108 + polymyxin B
[16] = in combination with polymyxin B
[17] = PMB 16 μg/ml + PA108 5 μM, gene ontology analysis

With `Cc1cc([N+](=O)[O-])cc(-c2ccc(Cl)cc2)c1O` [PA108] the FIC ([1]; A. baumannii colistin R357) was 0.03125, the “MIC Alone” value ([1]; A. baumannii colistin R357) was 160 µM and the FICI [1, 15] was 0.06225. The Interpretation [1, 15] was “synergistic effect; also recorded: Synergy”, the “MIC Combi” value ([1]; A. baumannii colistin R357, in combination with PB) was 5 µM and the “nephrotoxicity at working concentration” value ([2]; 5 μM) was “nephrotoxicity was not shown at all”. For the same molecule, the renal cell viability ([2]; concentration higher than 5 μM) was at least 80%, the FIC [3] was 0.03125 and the “MIC Alone” value [3] was 160 µM. The Interpretation ([3]; PA108 + polymyxin B) was “Synergy”, the “MIC Combi” value [3, 16] was 5 µM and the “cell death by LIVE/DEAD fluorescence, PA108 single treatment” value ([4]; PA108 5 μM) was “the cells did not die”. The “cell morphology by scanning electron microscope, PA108 single treatment” value ([4]; PA108 5 μM) was “intact form in which the surface of cells was not damaged”, the “cell death by LIVE/DEAD fluorescence, simultaneous treatment” value ([4]; PMB 16 μg/ml + PA108 5 μM) was “cell death was derived” and the “cell morphology by scanning electron microscope, simultaneous treatment” value ([4]; PMB 16 μg/ml + PA108 5 μM) was “cells shrunk and an intracellular substance was leaked”. For the same molecule, the overall membrane permeability [5] was “did not affect the overall membrane permeability”, the “effect of killing (CFU), PA108 single treatment” value ([6]; PA108 5 μM) was “did not show the effect of killing” and the “cell death (CFU), simultaneous treatment” value ([6]; PMB 16 μg/mL + PA108 5 μM) was “cell death was derived”. For the same molecule, the bacterial killing effect ([6]; PMB 16 μg/mL + PA108 5 μM, final) was 100%, the FIC [7] was 0.0625 and the “MIC Alone” value [7] was 160 µM. The Interpretation ([7]; PA108 + polymyxin B) was “Synergy”, the “MIC Combi” value [7, 16] was 10 µM and the FIC [8] was 0.03125. For the same molecule, the “MIC Alone” value [8] was 160 µM, the Interpretation ([8]; PA108 + polymyxin B) was “Synergy” and the “MIC Combi” value [8, 16] was 5 µM. For the same molecule, the “gene change compared with control group, PA108 single treatment” value ([9]; PA108 5 μM) was “significant gene change was observed”, the “gene change compared with control group, simultaneous treatment” value ([9]; PMB 16 μg/ml + PA108 5 μM) was “significant gene change was observed” and the “expression of genes involved in transport of substances through a cell membrane, ATPase-coupled sulfate transmembrane transporter activity” value [9, 17] was “significantly increased”. For the same molecule, the “expression of genes involved in zinc ion binding, identical protein binding, ferric ion binding and peroxidase activity” value [9, 17] was “significantly decreased”, the FIC [10] was 0.03125 and the “MIC Alone” value [10] was 160 µM. The Interpretation ([10]; PA108 + polymyxin B) was “Synergy”, the “MIC Combi” value [10, 16] was 5 µM and the “bacterial cytoplasmic membrane potential” value [11] was “changed the bacterial cytoplasmic membrane potential”. For the same molecule, the “survival time, simultaneous treatment” value ([12]; C57BL/6 mouse, R357 i.p.) was at least 168 h, the “R357 strains in organs at autopsy, simultaneous treatment” value [12] was “R357 strains were not detected in organs” and the “pathological symptoms, simultaneous treatment” value ([12]; until 168 hours) was “without showing any pathological symptoms”. The FIC [13] was 0.0625, the “MIC Alone” value [13] was 160 µM and the Interpretation ([13]; PA108 + polymyxin B) was “Synergy”. For the same molecule, the “MIC Combi” value [13, 16] was 10 µM, the FIC [14] was 0.0625 and the “MIC Alone” value [14] was 160 µM. For the same molecule, the Interpretation ([14]; PA108 + polymyxin B) was “Synergy” and the “MIC Combi” value [14, 16] was 10 µM.

For polymyxin B [PMB, reference compound], the FIC ([1]; A. baumannii colistin R357) was 0.031, the “MIC Alone” value ([1]; A. baumannii colistin R357) was 54 µg/mL and the “MIC Combi” value ([1]; A. baumannii colistin R357, in combination with PA108) was 2 µg/mL. The “minimal inhibitory concentration (MIC)” value ([1]; R357 strains, polymyxin alone) was 64 µg/mL, the “concentration from which viability of renal cells decreased” value ([2]; up to 96 hours) was at least 50 µg/mL and the FIC [3] was 0.00781. The “MIC Alone” value [3] was 128 µg/mL, the “MIC Combi” value ([3]; in combination with PA108) was 1 µg/mL and the “cell death by LIVE/DEAD fluorescence, PMB single treatment” value ([4]; PMB 16 μg/ml) was “the cells did not die”. For the same molecule, the “cell morphology by scanning electron microscope, PMB single treatment” value ([4]; PMB 16 μg/ml) was “intact form in which the surface of cells was not damaged”, the “effect of killing (CFU), PMB single treatment” value ([6]; PMB 16 μg/mL) was “did not show the effect of killing” and the FIC [7] was 0.25. The “MIC Alone” value [7] was 16 µg/mL, the “MIC Combi” value ([7]; in combination with PA108) was 4 µg/mL and the FIC [8] was 0.0623. The “MIC Alone” value [8] was 8 µg/mL, the “MIC Combi” value ([8]; in combination with PA108) was 0.5 µg/mL and the “gene change compared with control group, PMB single treatment” value ([9]; PMB 16 μg/ml) was “significant gene change was observed”. For the same molecule, the FIC [10] was 0.00391, the “MIC Alone” value [10] was 128 µg/mL and the “MIC Combi” value ([10]; in combination with PA108) was 0.5 µg/mL. For the same molecule, the FIC [13] was 0.125, the “MIC Alone” value [13] was 16 µg/mL and the “MIC Combi” value ([13]; in combination with PA108) was 2 µg/mL. For the same molecule, the FIC [14] was 0.0625, the “MIC Alone” value [14] was 32 µg/mL and the “MIC Combi” value ([14]; in combination with PA108) was 2 µg/mL.
